Experimental data as given in patent US9358267B2, “High purity lipopeptides” (Cubist Pharmaceuticals LLC, priority 2000, dated 2016).

Experiments:
[1] = size of daptomycin micelles by light scatter (Zetasizer); type: physicochemical; conditions: for micelle size: 1 mg/mL, pH approximately 4.0 in water, light scatter
Description: The daptomycin micelles have an average size of 5.4 nm (54 A).
Daptomycin micelles were produced using daptomycin at a concentration of 1.0 mg/mL in water at pH 4.0 at 25° C. The size of a daptomycin micelle was measured using a Zetasizer™ (Malvern Instruments, Model 3000 HS). The count rate of 36.3, the cell type was a capillary cell, the detection angle (deg) was 90°, and the wavelength (nm) was 633.

[2] = tested on: gram-positive organisms (susceptible and resistant strains); assay: in vitro antibacterial activity (MIC); type: cell-based
Description: In addition, the minimum inhibitory concentration (MIC) value for daptomycin against susceptible strains is typically 4-fold lower than that of vancomycin. […] Thus, in a preferred embodiment, purified daptomycin, lipopeptide antibiotic, or pharmaceutical compositions thereof are administered according to the methods of this invention to a patient in need of rapidly acting antibiotic therapy.

[3] = critical micellar concentration (cmc) of daptomycin; type: physicochemical
Text: Micelle formation causes changes in several bulk physical properties of a solution including changes in osmotic pressure, turbidity, electrical conductance, surface tension, co-ion and counterion activities (in the case of ionic, amphipathic molecules), refractive index, UV and NMR spectra, partial molar volume, viscosity, diffusion coefficient and dye solubilization. The cmc can be determined by measuring one or more of these micelle-dependent physical properties as a function of concentration of the amphipathic molecule. The size and shape of micelles can be determined by dynamic laser light scattering, ultracentrifugation, viscosity and/or low-angle X-ray scattering experiments. Micelles can also exist in liquid crystal phases.
In another embodiment of the invention, the pH of a solution comprising a lipopeptide is manipulated to influence the cmc of the lipopeptide. In a preferred embodiment, the lipopeptide is daptomycin or a daptomycin-related molecule, such as those described supra. In an even more preferred embodiment, the lipopeptide is daptomycin. In one embodiment, the pH is manipulated so that the concentration of a lipopeptide is higher than the cmc at one pH and is lower than the cmc at another pH. For instance, for daptomycin, the cmc at pH 4.0 in water at a temperature of 20-25° C. was much lower than at pH 6.0 or 7.5. […]

## CCCCCCCCCC(=O)N[C@@H](Cc1c[nH]c2ccccc12)C(=O)N[C@H](CC(N)=O)C(=O)N[C@@H](CC(=O)O)C(=O)N[C@@H]1C(=O)NCC(=O)N[C@@H](CCCN)C(=O)N[C@@H](CC(=O)O)C(=O)N[C@H](C)C(=O)N[C@@H](CC(=O)O)C(=O)NCC(=O)N[C@H](CO)C(=O)N[C@@H]([C@H](C)CC(=O)O)C(=O)N[C@@H](CC(=O)c2ccccc2N)C(=O)O[C@@H]1C [daptomycin]
[1]; 1.0 mg/mL in water, pH 4.0, 25° C., Zetasizer
  diameter of the micelle: 54 A
[1]
  micelle size: 5.4 nm
[1]; listed as Daptomycin
  micelle size: approximately 5.4 nm
[2]; in vitro experiments
  antibacterial activity against classically resistant strains relative to classically susceptible strains: comparable
[2]; susceptible strains
  MIC, fold lower than that of vancomycin: ~4 fold
[3]; 150 mg/mL daptomycin, pH 6.5, 150 mM to 300 mM NaCl, 4° C.
  aggregation state (monomeric or micellar): monomeric
[3]; pH 4.0 in water, 20-25° C.
  critical micellar concentration (cmc): approximately 400 μg/mL
